In publication PMC11431997, “Baicalin Inhibits FIPV Infection In Vitro by Modulating the PI3K-AKT Pathway and Apoptosis Pathway” (International Journal of Molecular Sciences, 2024):

What was measured:
[1] = test system: FIPV (BJ-01); assay: Direct inactivation of FIPV (compound pre-mixed with virus, CCK-8); assay type: cell-based, feline infectious peritonitis virus
Experimental: According to previous methods, CRFK cells were seeded in 96-well cell culture plates at a density of 1 × 10^4 cells/well and cultured at 37 °C in 5% CO2 until the cell density was greater than 90%. Then, the medium was discarded, and the cells were washed twice with PBS. The compound was mixed with FIPV in the ratio of 1:1 and incubated at 37 °C and 5% CO2 for 30, 60, 90, 120, and 150 min, respectively; then, the mixture of different incubation durations were added into 96-well cell culture plates at 100 μL/well and incubated at 37 °C and 5% CO2, respectively (at the same time, a cell control group with only 100 μL of MM and a viral control group with only 100 μL of FIPV were added). There were 3 replicate wells for each compound and group. After the CPE of the viral control group reached more than 80%, the liquid in the culture plate was removed and washed twice with PBS. Afterwards, the IR of the compounds against the virus was computed according to the directions of the Cell Counting Kit-8.

[2] = test system: FIPV (BJ-01); assay: Cellular viral load by qPCR (FIPV-N gene); assay type: cell-based, feline infectious peritonitis virus
Experimental: CRFK cells were seeded in a 96-well cell culture plate at a density of 1 × 10^4 cells/well and cultured at 37 °C in 5% CO2 until the cell density was greater than 90%. After the cells were washed twice with PBS, 50 μL of compound and 50 μL of FIPV were added to each well simultaneously, and the plates were incubated at 37 °C and 5% CO2 for 12, 24, 36, 48, 60, and 72 h (at the same time, a cell control group with only 100 μL of MM and a viral control group with only 100 μL of FIPV were added). There were 3 replicate wells for each group and incubation time. After the liquid in the plate was discarded, the cells were washed twice with PBS. Then, the cells were digested by adding tryptic digest at 30 μL/well, the cell suspension was collected, and the cell precipitates were collected by centrifugation at 3000 rpm for 1 min. Total cellular RNA was extracted after the cell precipitates were resuspended in PBS according to the instructions of the FastPure Viral DNA/RNA Mini Kit Pro (Vazyme, Nanjing, China). Then, reverse transcription was performed using HiScript IV RT SuperMix for qPCR (+gDNA wiper) (Vazyme, Nanjing, China). The sequences of the primers used for the detection of the FIPV-N (GenBank: MK840958.1) were […] (F: 5′→3′) and […] (R: 5′→3′). The sequences of the primers used for the detection of the GAPDH genes were […] (F: 5′→3′) and […] (R: 5′→3′). […]

[3] = test system: PI3K-AKT signaling pathway and apoptosis pathway; assay: 4D-LFQ proteomics of FIPV-infected CRFK cells; assay type: cell-based, feline; details: 48 h
Source text: According to the methods of Section 4.6, post-infection cells were collected at the appropriate time of infection and then quickly frozen in liquid nitrogen. The cell control group was named the control group (Group C), the virus control group was named the FIPV group (Group F), the compound treatment group was named the treatment group (Group T), and each group contained three replicate samples. Afterwards, they were sent to Shanghai Applied Protein Technology Co., Ltd. (Shanghai, China) for 4D-LFQ proteomics analysis.

[4] = test system: PI3K-AKT signaling pathway and apoptosis pathway; assay: Western blot of key proteins in FIPV-infected CRFK cells; assay type: cell-based, feline; details: treatment group vs FIPV group, p < 0.05
Experimental: Based on the results of the above experiments, the cell precipitates were collected according to the method in Section 4.6 and grouped as described in Section 4.7. After infection, the cells were collected at the appropriate time of infection, and the proteins were extracted from the samples according to the instructions of a total protein extraction kit (strong) (Solarbio, Beijing, China). Afterwards, the protein concentration of the extracted samples was determined separately using a BCA Protein Quantification Kit (Vazyme, Nanjing, China), and all sample proteins were diluted to the same concentration using PBS. The diluted protein samples were mixed with NuPAGE LDS Sample Buffer (4×) (Invitrogen, Waltham, MA, USA) at a ratio of 1:4 and heated at 70 °C for 10 min to denature the proteins. After that, the denatured proteins were added to 10 wells of 12% sodium dodecyl sulfate-polyacrylamide gel electrophoresis (SDS-PAGE) (Vazyme, Nanjing, China) at 20 μg/well, after which the total proteins were separated on NuPAGE MES SDS Running Buffer (Invitrogen, CA, USA). After separation, proteins were transferred from the gel onto 0.45 μm polyvinylidene fluoride (PVDF) membranes (Millipore, Billerica, MA, USA) using WB Transfer Buffer (Solarbio, Beijing, China). After that, the PVDF membranes were blocked with 5% skim milk (Solarbio, Beijing, China) at room temperature for 2 h. At the end of the closure, the membranes were washed with TBST (6 times, each time for 5 min, as described below); then. the primary antibodies were added and incubated at 4 °C overnight. The next day, the PVDF membranes were washed with TBST, the primary antibodies were removed, and the secondary antibodies were added and incubated at room temperature for 2 h (the antibody information and dilutions are shown in Section 4.1.4). At the end of the incubation, the PVDF membranes were washed with TBST, after which the protein bands were exposed and imaged using a SuperPico ECL Chemiluminescence Kit (Vazyme, Nanjing, China) and an Al680 imaging system (GE, Boston, MA, USA). The gray values of the WB bands were analyzed using ImageJ 1.54f, and the relative expression was calculated using GAPDH as an internal reference protein.

[5] = treatment/FIPV comparison group

Q: What does the source list for `O=C(O)[C@H]1O[C@@H](Oc2cc3oc(-c4ccccc4)cc(=O)c3c(O)c2O)[C@H](O)[C@@H](O)[C@@H]1O` [Baicalin]?
A: inhibition rate on FIPV (direct inactivation) ([1]; 150 min of co-culture of baicalin with FIPV): ~100%; inhibition rate on FIPV (direct inactivation) ([1]; baicalin co-cultured with FIPV 30-150 min before addition to CRFK cells, all times): more than 50%; FIPV-N gene copy number ([2]; 48 h compared with 36 h of baicalin treatment, p < 0.05): significantly decreased; time of peak FIPV-N gene copy number after baicalin treatment ([2]; FIPV-infected CRFK cells, qPCR at 12-72 h): 36 h; AKT2 level (4D-LFQ) ([3]; treatment group vs FIPV group): significantly upregulated; AKT3 level (4D-LFQ) ([3]; treatment group vs FIPV group): tended to increase; EGFR level (4D-LFQ) ([3]; treatment group vs FIPV group): significantly upregulated; PIK3CA level (4D-LFQ) ([3]; treatment group vs FIPV group): significantly upregulated; BAX level (4D-LFQ) [3, 5]: downregulated but not significant; BCL2L level (4D-LFQ) [3, 5]: upregulated but not significant; CASP9 level (4D-LFQ) [3, 5]: significantly downregulated; Bax relative expression (WB, GAPDH reference) [4]: significantly downregulated; Bcl-2/Bax relative expression (WB) [4]: significantly upregulated; Bcl-2 relative expression (WB, GAPDH reference) [4]: significantly upregulated; EGFR relative expression (WB, GAPDH reference) [4]: significantly upregulated; PI3K relative expression (WB, GAPDH reference) [4]: significantly upregulated; cleaved caspase 9 relative expression (WB, GAPDH reference) [4]: significantly downregulated
